Assay results taken from paper PMC8397297 (ACS Chemical Neuroscience, 2021).
Like-named read-outs stand apart in the source and are kept apart here.

Key:
[1] = biological target: T1, mGAT2 (Mus musculus, UniProt P31651); settings: cited from earlier work
T1 construct: expressed in transfected cells; host or cells: HEK-293
T1 sequence (P31651 1-614): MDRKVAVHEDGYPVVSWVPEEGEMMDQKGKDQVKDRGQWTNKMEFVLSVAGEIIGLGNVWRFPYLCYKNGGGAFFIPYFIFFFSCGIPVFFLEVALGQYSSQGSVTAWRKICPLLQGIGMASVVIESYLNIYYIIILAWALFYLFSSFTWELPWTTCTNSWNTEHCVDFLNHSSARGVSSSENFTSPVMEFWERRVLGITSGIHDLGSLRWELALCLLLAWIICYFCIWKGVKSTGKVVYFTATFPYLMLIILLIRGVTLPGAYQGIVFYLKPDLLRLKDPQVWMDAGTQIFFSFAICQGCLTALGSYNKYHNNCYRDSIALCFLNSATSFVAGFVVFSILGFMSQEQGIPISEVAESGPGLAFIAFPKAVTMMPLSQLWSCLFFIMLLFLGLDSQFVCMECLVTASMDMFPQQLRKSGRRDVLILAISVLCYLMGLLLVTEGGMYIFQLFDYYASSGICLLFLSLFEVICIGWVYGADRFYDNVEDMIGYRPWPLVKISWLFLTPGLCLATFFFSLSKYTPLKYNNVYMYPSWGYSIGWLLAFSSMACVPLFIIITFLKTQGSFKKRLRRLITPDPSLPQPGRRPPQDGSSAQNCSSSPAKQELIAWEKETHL

[2] = biological target: T2, mGAT3 (Mus musculus, UniProt P31649); settings: cited from earlier work
T2 construct: expressed in transfected cells; host or cells: HEK-293
T2 sequence (P31649 1-602): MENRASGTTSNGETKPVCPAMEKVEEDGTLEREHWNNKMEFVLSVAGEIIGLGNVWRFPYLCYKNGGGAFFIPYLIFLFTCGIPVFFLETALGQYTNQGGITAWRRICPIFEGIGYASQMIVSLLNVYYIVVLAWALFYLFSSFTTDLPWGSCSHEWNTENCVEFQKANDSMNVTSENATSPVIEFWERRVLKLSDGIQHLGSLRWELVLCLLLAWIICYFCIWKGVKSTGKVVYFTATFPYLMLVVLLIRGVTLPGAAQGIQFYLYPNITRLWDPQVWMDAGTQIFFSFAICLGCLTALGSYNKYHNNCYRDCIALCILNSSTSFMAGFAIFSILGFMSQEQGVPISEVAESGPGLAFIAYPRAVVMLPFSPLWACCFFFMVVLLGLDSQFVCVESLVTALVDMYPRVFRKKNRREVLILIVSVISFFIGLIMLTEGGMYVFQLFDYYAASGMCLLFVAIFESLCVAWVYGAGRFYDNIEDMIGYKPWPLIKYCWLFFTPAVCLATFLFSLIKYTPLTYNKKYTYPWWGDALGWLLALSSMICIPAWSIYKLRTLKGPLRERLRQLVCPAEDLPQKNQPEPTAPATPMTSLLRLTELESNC

[3] = biological target: T3, mGAT1 (Mus musculus, UniProt P31648); assay: [3H]GABA uptake assay in HEK-293 cells stably expressing mGAT1; assay type: cell-based; settings: for IC50: [3H]GABA uptake, read-out: pIC50 ± SEM mGAT1 (converted); for remaining [3H]GABA uptake mGAT1: in the presence of 100 μM inhibitor
T3 construct: expressed in transfected cells; host or cells: HEK-293

[4] = biological target: T4, mGAT4 (Mus musculus, UniProt P31650); assay: [3H]GABA uptake assay in HEK-293 cells stably expressing mGAT4; assay type: cell-based; settings: for remaining [3H]GABA uptake mGAT4: in the presence of 100 μM inhibitor; for IC50: [3H]GABA uptake, read-out: pIC50 ± SEM mGAT4 (converted)
T4 construct: expressed in transfected cells; host or cells: HEK-293
T4 sequence (P31650 1-627): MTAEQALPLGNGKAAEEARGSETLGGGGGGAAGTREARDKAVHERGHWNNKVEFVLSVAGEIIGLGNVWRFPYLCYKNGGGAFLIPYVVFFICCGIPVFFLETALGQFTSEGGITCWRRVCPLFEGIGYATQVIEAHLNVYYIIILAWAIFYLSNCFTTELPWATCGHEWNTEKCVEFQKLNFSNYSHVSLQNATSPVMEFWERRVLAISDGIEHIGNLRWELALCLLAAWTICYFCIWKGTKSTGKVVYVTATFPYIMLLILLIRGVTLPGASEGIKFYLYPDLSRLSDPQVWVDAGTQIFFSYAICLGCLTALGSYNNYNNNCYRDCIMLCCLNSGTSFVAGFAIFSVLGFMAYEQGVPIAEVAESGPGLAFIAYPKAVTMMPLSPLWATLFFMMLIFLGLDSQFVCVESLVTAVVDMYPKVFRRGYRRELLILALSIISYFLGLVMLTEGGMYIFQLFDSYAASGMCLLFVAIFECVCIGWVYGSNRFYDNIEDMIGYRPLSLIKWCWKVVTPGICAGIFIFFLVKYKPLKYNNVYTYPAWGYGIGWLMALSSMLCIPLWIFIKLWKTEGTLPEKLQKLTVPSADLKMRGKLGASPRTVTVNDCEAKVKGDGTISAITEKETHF

[5] = biological target: T2, mGAT3; assay: [3H]GABA uptake assay in HEK-293 cells stably expressing mGAT3; assay type: cell-based; settings: for remaining [3H]GABA uptake mGAT3: in the presence of 100 μM inhibitor; for IC50: [3H]GABA uptake, read-out: pIC50 ± SEM mGAT3 (converted)
[6] = biological target: T3, mGAT1; assay: competitive MS binding assay with NO711 as unlabeled marker (LC-ESI-MS/MS); settings: for remaining NO711 binding mGAT1: in the presence of 100 μM inhibitor
Outline: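 Competitive MS binding with unlabeled NO711 as marker, quantified by LC–ESI-MS/MS. Compounds screened at 100 μM for inhibition of marker binding.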

[7] = biological target: T1, mGAT2; assay: [3H]GABA uptake assay in HEK-293 cells stably expressing mGAT2; assay type: cell-based; settings: for remaining [3H]GABA uptake mGAT2: in the presence of 100 μM inhibitor; for IC50: [3H]GABA uptake, read-out: pIC50 ± SEM mGAT2 (converted)

SMILES	remaining [3H]GABA uptake mGAT4 [4]	remaining [3H]GABA uptake mGAT3 [5]	remaining NO711 binding mGAT1 [6]	remaining [3H]GABA uptake mGAT2 [7]	remaining [3H]GABA uptake mGAT1 [3]	IC50 [4]	IC50 [5]	also measured
COc1ccc(C(OCCN2CCC[C@H](C(=O)O)C2)(c2ccc(OC)cc2)c2ccc(OC)cc2)cc1 [(S)-SNAP-5114, (S)-1-{2-[Tris(4-methoxyphenyl)methoxy]ethyl}piperidine-3-carboxylic acid]	–	–	–	–	–	–	–	remaining [3H]GABA uptake mGAT2 ([1]; 100 μM inhibitor): 100 μM: 56%; mGAT2 % (100μM) [1]: 56%
COc1ccc(C(OCCN2CCC[C@H](C(=O)O)C2)(c2ccc(OC)cc2)c2ccc(-c3ccc(C=O)cc3)cc2)cc1 [Compound 11]	–	–	–	–	–	–	–	pIC50 mGAT3 ([2]; Figure 2): 5.16; mGAT2 % (100μM) [1]: 73%
CCC(C(=O)NCc1ccccc1)N1CCC(=C(c2sccc2C)c2sccc2C)CC1 (stereo not drawn) [Compound 64a, N-Benzyl-2-(4-(bis(3-methylthiophen-2-yl)methylene)piperidin-1-yl)butanamide]	100 μM: 77%	100 μM: 69%	100 μM: 81%	100 μM: 108%	–	–	–	IC50 [3]: 7.08 µM
CCC(C(=O)NCc1ccccc1Cl)N1CCC(=C(c2sccc2C)c2sccc2C)CC1 (stereo not drawn) [Compound 64b, 2-(4-(Bis(3-methylthiophen-2-yl)methylene)piperidin-1-yl)-N-(2-chlorobenzyl)butanamide]	100 μM: 64%	100 μM: 61%	100 μM: 108%	100 μM: 101%	100 μM: 66%	–	–	–
CC(C(=O)NCc1ccccc1)N(C)CCON=C(c1ccccc1)c1ccccc1 (stereo not drawn) [Compound 65, N-Benzyl-2-((2-(((diphenylmethylene)amino)oxy)ethyl)(methyl)amino)propanamide]	–	–	100 μM: 104%	–	–	26.3 µM	13.8 µM	IC50 [3]: 58.9 µM; IC50 [7]: 26.3 µM
CCC(C(=O)NCc1ccccc1)N(C)CCON=C(c1ccccc1)c1ccccc1 (stereo not drawn) [Compound 66a, N-Benzyl-2-((2-(((diphenylmethylene)amino)oxy)ethyl)(methyl)amino)butanamide]	–	–	100 μM: 104%	100 μM: 55%	100 μM: 50%	13.8 µM	16.6 µM	–
CCC(C(=O)NCc1ccccc1Cl)N(C)CCON=C(c1ccccc1)c1ccccc1 (stereo not drawn) [Compound 66b, N-(2-Chlorobenzyl)-2-((2-(((diphenylmethylene)amino)oxy)ethyl)(methyl)amino)butanamide]	100 μM: 50%	–	100 μM: 107%	100 μM: 59%	100 μM: 69%	–	45.7 µM	–
Cc1ccsc1C(=CCCN(C)C(C)C(=O)NCc1ccccc1)c1sccc1C (stereo not drawn) [Compound 67, N-Benzyl-2-((4,4-bis(3-methylthiophen-2-yl)but-3-en-1-yl)(methyl)amino)propanamide]	–	–	100 μM: 83%	–	–	12 µM	13.5 µM	IC50 [3]: 24.5 µM; IC50 [7]: 13.2 µM
CCC(C(=O)NCc1ccccc1)N(C)CCC=C(c1sccc1C)c1sccc1C (stereo not drawn) [Compound 68, N-Benzyl-2-((4,4-bis(3-methylthiophen-2-yl)but-3-en-1-yl)(methyl)amino)butanamide]	–	–	100 μM: 81%	–	–	12.9 µM	30.9 µM	IC50 [3]: 26.9 µM; IC50 [7]: 39.8 µM
CCOC(=O)[C@H](C)N(C)CCC=C1c2ccccc2C=Cc2ccccc21 [Compound 71, Ethyl N-(3-(5H-Dibenzo[a,d][7]annulen-5-ylidene)propyl)-N-methylalaninate]	–	–	100 μM: 103%	100 μM: 54%	100 μM: 52%	63.1 µM	21.9 µM	–
C[C@@H](C(=O)OCc1ccccc1)N(C)CCC=C1c2ccccc2C=Cc2ccccc21 [Compound 72, Benzyl N-(3-(5H-Dibenzo[a,d][7]annulen-5-ylidene)propyl)-N-methylalaninate]	100 μM: 97%	100 μM: 86%	100 μM: 109%	100 μM: 63%	100 μM: 98%	–	–	–
CCOC(=O)C(C)N(C)CCC=C(c1sccc1C)c1sccc1C (stereo not drawn) [Compound 73, Ethyl 2-((4,4-Bis(3-methylthiophen-2-yl)but-3-en-1-yl)(methyl)amino)propanoate]	–	–	100 μM: 94%	100 μM: 52%	100 μM: 55%	52.5 µM	25.1 µM	–
C[C@@H](C(=O)O)N(C)CCC=C1c2ccccc2C=Cc2ccccc21 [Compound 74, N-(3-(5H-Dibenzo[a,d][7]annulen-5-ylidene)propyl)-N-methylalanine]	100 μM: 77%	100 μM: 62%	–	100 μM: 55%	100 μM: 55%	–	–	Ki ([6]; MS binding assay, read-out: pKi ± SEM mGAT1 (converted)): 28.8 µM
Cc1ccsc1C(=CCCN(C)C(C)C(=O)O)c1sccc1C (stereo not drawn) [Compound 75, 2-((4,4-Bis(3-methylthiophen-2-yl)but-3-en-1-yl)(methyl)amino)propanoic Acid]	100 μM: 60%	100 μM: 52%	100 μM: 81%	100 μM: 59%	100 μM: 71%	–	–	–
O=C(O)C1=CCCN(CCO/N=C/c2ccccc2-c2ccc(Cl)cc2Cl)C1 [DDPM-2571]	–	–	–	–	–	–	–	pIC50 mGAT3 ([2]; [3H]GABA uptake): 4.35
NCCC(=O)O [β-alanine]	–	–	–	–	–	–	–	pIC50 mGAT2 ([1]; Figure 2): 2.96
